# Experiments:
# [1] = biological target: T1, Histone-arginine methyltransferase CARM1 (Homo sapiens) (UniProt Q86X55); conditions: KMS-27, at 3 µM
# T1 sequence (whole entry): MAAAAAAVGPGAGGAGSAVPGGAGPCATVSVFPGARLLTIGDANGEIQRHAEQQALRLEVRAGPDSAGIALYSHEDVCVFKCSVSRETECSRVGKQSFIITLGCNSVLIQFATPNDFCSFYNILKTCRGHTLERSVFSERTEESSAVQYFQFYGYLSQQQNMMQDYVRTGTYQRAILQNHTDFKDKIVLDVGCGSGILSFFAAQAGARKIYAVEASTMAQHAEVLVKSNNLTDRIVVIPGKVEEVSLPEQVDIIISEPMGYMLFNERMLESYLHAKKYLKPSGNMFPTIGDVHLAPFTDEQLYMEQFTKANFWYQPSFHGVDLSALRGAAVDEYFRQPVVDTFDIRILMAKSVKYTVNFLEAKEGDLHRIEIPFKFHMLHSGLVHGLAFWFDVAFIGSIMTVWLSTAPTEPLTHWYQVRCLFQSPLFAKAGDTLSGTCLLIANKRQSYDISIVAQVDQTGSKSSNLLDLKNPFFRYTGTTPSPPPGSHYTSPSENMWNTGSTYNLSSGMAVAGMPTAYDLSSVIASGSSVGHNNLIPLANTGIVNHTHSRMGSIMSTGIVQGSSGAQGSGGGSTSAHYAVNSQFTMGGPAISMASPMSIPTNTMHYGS
# [2] = biological target: T2, Serine/threonine-protein kinase LATS2 (Homo sapiens) (UniProt Q9NRM7); experiment: Selectivity interaction (KinomeScan (DiscoverX)) EUB0000229b LATS2; conditions: at 10 µM
# T2 sequence (whole entry): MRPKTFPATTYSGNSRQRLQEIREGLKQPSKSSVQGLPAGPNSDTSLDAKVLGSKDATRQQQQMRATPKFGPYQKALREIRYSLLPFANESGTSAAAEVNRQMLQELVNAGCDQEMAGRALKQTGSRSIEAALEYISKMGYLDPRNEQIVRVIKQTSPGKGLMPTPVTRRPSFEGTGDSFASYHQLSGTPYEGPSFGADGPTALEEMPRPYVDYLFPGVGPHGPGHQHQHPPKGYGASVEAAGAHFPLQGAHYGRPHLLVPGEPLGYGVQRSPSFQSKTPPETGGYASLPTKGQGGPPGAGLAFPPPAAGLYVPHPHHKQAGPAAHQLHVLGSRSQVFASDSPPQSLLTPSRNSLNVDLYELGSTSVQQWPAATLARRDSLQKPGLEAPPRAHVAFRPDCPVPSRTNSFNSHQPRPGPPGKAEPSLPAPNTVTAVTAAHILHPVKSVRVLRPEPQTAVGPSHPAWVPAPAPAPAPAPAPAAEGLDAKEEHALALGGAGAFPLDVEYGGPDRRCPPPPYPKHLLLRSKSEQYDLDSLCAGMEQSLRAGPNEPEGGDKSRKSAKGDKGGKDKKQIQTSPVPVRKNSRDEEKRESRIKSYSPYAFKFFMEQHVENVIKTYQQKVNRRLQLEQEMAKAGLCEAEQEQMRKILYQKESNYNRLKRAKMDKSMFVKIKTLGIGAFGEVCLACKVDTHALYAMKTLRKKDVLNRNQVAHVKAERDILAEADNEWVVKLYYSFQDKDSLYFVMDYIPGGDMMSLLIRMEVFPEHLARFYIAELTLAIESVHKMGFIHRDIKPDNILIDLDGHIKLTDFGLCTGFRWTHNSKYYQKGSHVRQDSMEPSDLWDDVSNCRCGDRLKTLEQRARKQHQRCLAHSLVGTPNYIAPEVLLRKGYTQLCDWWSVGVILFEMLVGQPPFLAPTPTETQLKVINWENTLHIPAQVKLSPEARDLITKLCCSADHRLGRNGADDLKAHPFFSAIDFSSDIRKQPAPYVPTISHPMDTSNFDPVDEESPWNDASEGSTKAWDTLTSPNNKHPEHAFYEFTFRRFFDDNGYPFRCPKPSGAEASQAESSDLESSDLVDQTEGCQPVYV
# [3] = biological target: Activin receptor type-2B (Homo sapiens) (UniProt Q13705); conditions: at 10 µM
# [4] = biological target: T3, Mitogen-activated protein kinase kinase kinase 7 (Homo sapiens) (UniProt O43318); experiment: Selectivity interaction (KinomeScan (DiscoverX)) EUB0000045b MAP3K7
# T3 sequence (whole entry): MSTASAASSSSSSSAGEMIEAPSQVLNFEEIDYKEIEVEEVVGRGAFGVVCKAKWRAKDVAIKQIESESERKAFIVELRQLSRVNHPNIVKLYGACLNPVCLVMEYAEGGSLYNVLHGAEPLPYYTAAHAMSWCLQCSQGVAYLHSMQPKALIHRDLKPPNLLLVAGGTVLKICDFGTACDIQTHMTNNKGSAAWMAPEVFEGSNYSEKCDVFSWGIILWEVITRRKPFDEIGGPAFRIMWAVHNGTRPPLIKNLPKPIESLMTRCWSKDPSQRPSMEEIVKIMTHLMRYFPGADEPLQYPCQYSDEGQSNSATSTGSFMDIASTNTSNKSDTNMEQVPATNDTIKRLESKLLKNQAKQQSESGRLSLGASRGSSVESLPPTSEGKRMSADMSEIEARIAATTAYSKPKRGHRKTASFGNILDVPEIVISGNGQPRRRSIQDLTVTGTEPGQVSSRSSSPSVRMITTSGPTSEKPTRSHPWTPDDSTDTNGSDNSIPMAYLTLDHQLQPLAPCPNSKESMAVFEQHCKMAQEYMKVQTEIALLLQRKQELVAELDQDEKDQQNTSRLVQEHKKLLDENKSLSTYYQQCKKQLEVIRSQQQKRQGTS
# [5] = biological target: T4, Phosphatidylinositol 5-phosphate 4-kinase type-2 gamma (Homo sapiens) (UniProt Q8TBX8); conditions: at 10 µM
# T4 sequence (whole entry): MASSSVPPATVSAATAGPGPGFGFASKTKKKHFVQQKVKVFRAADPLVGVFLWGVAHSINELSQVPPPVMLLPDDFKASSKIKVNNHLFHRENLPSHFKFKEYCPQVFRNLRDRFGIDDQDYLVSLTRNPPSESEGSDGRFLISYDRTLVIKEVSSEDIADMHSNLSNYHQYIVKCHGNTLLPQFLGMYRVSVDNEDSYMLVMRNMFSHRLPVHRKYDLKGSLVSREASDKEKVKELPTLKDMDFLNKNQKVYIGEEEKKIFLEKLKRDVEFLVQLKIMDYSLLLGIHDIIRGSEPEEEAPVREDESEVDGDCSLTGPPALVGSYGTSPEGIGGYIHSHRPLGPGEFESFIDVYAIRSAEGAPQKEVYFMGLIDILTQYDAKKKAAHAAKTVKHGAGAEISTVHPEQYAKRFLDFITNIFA
# [6] = biological target: Receptor tyrosine-protein kinase erbB-2 (Homo sapiens, UniProt P04626); experiment: Selectivity interaction (Kinase panel (Z-LYTE Assay)) EUB0001632a ERBB2; conditions: at 10 µM
# [7] = biological target: Dual specificity mitogen-activated protein kinase kinase 2 (Homo sapiens) (UniProt P36507); experiment: Selectivity interaction (ProQinase) EUB0000171b MAP2K2
# Chain of Dual specificity mitogen-activated protein kinase kinase 2 (Homo sapiens) (P36507 whole entry): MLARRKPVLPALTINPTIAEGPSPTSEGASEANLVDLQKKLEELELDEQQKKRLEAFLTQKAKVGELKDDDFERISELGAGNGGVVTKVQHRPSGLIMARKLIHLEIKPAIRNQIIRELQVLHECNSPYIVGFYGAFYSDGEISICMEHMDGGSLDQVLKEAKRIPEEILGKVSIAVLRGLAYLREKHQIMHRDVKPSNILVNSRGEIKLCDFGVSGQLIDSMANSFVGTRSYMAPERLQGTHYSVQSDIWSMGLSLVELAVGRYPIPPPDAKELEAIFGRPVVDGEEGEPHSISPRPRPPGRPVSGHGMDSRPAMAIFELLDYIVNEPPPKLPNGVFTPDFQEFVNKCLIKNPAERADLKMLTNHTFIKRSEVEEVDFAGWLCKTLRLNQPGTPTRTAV
# Chain of Activin receptor type-2B (Homo sapiens) (Q13705 whole entry): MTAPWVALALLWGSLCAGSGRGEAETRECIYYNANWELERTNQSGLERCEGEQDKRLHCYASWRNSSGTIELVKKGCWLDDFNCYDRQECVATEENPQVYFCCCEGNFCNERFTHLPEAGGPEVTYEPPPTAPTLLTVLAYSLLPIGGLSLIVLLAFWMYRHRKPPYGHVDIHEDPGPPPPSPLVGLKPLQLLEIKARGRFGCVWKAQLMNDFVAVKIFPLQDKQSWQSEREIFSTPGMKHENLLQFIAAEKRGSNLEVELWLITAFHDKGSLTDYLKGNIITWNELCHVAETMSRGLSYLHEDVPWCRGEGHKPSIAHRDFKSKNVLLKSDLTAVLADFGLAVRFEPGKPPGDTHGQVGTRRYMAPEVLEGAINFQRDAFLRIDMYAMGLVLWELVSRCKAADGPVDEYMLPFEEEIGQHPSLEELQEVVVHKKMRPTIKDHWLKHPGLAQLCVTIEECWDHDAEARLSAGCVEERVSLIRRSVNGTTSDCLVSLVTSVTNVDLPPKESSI
# Chain of Receptor tyrosine-protein kinase erbB-2 (P04626 whole entry): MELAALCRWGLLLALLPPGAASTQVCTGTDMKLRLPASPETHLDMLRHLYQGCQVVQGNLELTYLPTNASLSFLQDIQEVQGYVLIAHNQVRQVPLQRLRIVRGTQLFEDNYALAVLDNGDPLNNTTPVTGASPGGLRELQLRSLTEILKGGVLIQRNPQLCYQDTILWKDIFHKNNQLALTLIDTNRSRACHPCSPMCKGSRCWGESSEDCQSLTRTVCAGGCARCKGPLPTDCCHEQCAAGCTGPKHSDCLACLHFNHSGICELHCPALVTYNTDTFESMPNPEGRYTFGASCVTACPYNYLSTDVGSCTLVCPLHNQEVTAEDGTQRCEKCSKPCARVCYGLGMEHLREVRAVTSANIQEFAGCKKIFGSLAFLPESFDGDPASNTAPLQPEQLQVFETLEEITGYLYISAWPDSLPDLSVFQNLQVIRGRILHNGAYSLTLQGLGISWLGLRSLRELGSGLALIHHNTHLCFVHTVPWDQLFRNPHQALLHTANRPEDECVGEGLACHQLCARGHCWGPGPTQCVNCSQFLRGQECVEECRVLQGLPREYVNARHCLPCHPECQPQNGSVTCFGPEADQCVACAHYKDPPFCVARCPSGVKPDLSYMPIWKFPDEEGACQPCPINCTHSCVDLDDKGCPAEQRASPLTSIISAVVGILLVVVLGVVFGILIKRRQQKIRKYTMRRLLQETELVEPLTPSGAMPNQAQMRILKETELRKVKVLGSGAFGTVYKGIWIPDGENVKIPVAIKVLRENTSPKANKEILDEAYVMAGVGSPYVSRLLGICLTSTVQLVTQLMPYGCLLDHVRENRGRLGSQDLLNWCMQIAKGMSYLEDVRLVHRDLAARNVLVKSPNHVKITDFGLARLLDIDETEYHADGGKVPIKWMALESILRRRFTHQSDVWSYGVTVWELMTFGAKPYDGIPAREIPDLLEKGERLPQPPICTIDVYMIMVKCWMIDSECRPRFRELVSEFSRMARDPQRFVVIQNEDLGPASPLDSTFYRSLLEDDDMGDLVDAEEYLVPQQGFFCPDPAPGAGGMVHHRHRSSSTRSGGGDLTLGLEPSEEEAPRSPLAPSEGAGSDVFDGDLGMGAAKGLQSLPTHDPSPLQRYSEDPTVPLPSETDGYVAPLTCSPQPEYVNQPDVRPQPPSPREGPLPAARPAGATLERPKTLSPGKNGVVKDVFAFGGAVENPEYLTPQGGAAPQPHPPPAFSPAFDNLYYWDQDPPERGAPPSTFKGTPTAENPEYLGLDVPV
structure (smiles),measurement,setting,value
CNCCN1CCC(c2cc(CN(C)C(=O)c3cccc(Oc4ccccc4)c3)ccn2)CC1,% of growth rate,[1],-17.2%
COc1cc(N(C)c2ccnc3ccc(C(F)(F)F)cc23)cc(OC)c1OC,% binding,[2],89%
COCC(=O)NC/C=C/c1ccc2ncnc(Nc3ccc(Oc4ccc(C)nc4)c(C)c3)c2c1 [CP-724714],% of control,[3],100%
C=CC(=O)Nc1cc(-n2c(=O)ccc3cnc4ccc(-c5ccc(NS(C)(=O)=O)cc5)cc4c32)ccc1C,% of control,[4]; at 1 µM,83%
same,% of control,[4]; at 10 µM,78%
Cc1cc([C@@H](C)Nc2ccccc2C(=O)O)c2nc(N3CCOCC3)cc(=O)n2c1 [AZD-6482],% of control,[5],58%
Cn1cc(-n2cnc3c(NCc4nc5cc(Cl)c(Cl)cc5[nH]4)nc(N4CCOCC4)nc32)cn1,% of control,[6],-0.819%
C=CC(=O)Nc1cccc(C(=O)Nc2ccc(Nc3cc(-c4[nH]c(SC)nc4C)ccn3)cc2)c1,% of control,[7]; at 1 µM,76%
same,% of control,[7]; at 5 µM,36%

# From ChEMBL document CHEMBL5465560, “Selectivity Literature for EUbOPEN Chemogenomic Library” (2024)
